According to patent US11337449B2, “Compositions and their use” (NESTEC S.A., priority 2015, dated 2022):

What was measured:
[1] = tested on: brain myelination (myelin water fraction); assay: Cross-sectional correlation of infant formula nutrient content with brain myelination (myelin water fraction, mcDESPOT MRI); type: in vivo, human; details: children up to 5 years fed infant formulas
Method: MRI (Magnetic Resonance Imaging): MRI brain scans of infants and children between 0 and 5 years were acquired using a white matter imaging technique. This technique provides a quantitative measure, the Myelin Water Fraction (MWF), which is a surrogate marker of myelin content in the brain. When mapped as a function of time across early childhood, myelination trajectories can be generated.
Infant formula composition: six infant formulas fed to infants participating in a study were analyzed for their composition/level of myelin-relevant nutrients.
Each infant was scanned using the mcDESPOT (multicomponent Driven Equilibrium Single Pulse Observation of T1 and T2) white matter imaging technique Deoni et al. (Magn. Reson. Med. 2008, 60:1372-1387), which provides a quantitative measure of the myelin water fraction (MWF)—a measure of myelin content—at each point throughout the brain. All infants were scanned during natural (i.e. non-sedated) sleep using acoustically-muffled mcDESPOT imaging protocols. Total imaging times ranged from 19 minutes for the youngest toddlers to 24 minutes for the older 4 year-old children.
Following image alignment, non-brain signal removal, and correction for main and transmit magnetic field (B0 and B1) inhomogeneities, a three-pool signal model (comprising the myelin-associated water; intra-extra axonal water; and a non-exchanging free-water pool) was fit to the mcDESPOT data to derive voxel-wise MWF maps.
Each child's map was then non-linearly aligned to a study specific template. White matter masks, corresponding to 5 bilateral regions (frontal, temporal, occipital, parietal, and cerebellar WM) as well as the body, genu, and splenium of the corpus callosum were created from common databases, registered to the common template, and superimposed onto each child's MWF map. Mean values for each region were then determined for each child and used for subsequent developmental analysis and trajectory modeling.
From the cohort described above, children up to 5 years of age that were fed different infant formulas during infancy were included in a large correlation analysis to examine the relationship between formula nutrient composition and brain myelination. The 6 most frequently used formulas in that cohort were analyzed for their nutritional composition. A single general linear model (GLM) was constructed that modeled all quantified nutrients and child age.
Spearman rank correlations were then calculated between the nutrient content and myelin content value (adjusted for child age) at each image voxel, or point within the brain. Significance was defined as p<0.05 corrected for type 1 error using a cluster based correction approach. An association or trend was defined as p<0.15. […] To reduce the number of nutritional components in the model, we examined the inter-nutritional correlation. Using a conservative threshold of 0.9, we excluded nutritional components that were highly correlated with each other across the various formulas.

[2] = tested on: neural progenitor cell (NPCs) from E14 mouse neocortex; assay: Neurosphere counts in 96-well plates; type: cell-based; details: Low (Dose 1: 10 nM); cells grown 2 days
Method: Generation of neural progenitor cell (NPCs) libraries:
E14 pup brains were harvested and placed in ice cold DPBS(1×)+10% Pen/Strep, then they were dissected using a dissecting microscope. From each pup, one brain hemisphere was placed in 2 ml of Neurobasal media/10% P/S/10× Hepes and another brain hemisphere was placed in another tube.
The tissue from each tube was aseptically and manually dissociate into single cells, neurobasal complete medium was added and centrifuged at 130G for 5 min. The tissue was then re-suspended in neurobasal complete media with GF and placed in a corning suspension culture dish 100 mm×20 mm (#430591). Cells were passage twice using a 1:3 ratio, after what they were centrifuged (130 g 5 min), resuspended in freezing media (10% DMSO and neurobasal complete media, no GF) and frozen in liquid nitrogen (LN2).
Plating Cells in 96-Well Plates for Neurosphere Counts and Diameters Only
3-4 mLs of cells were taken out of the tilted plate and add to a 15 ml conical. Some of the remaining media was used to rinse down the plate. All remaining media was drawn up and put into a 15 ml conical tube, and Spun at 130G for 5 min. All media was removed. […]
1. […] Imaging was carried out using a GE Cytell imager or LSM 710, Zeiss confocal microscope and the diameters of neurospheres with ImageJ software (National Institutes of Health) was analysed.

[3] = tested on: neural progenitor cell (NPCs) from E14 mouse neocortex; assay: Monolayer culture NPC proliferation assay (EdU incorporation / DAPI); type: cell-based; details: lowSM (Dose 1: 10 nM); 3 days culture
Method: Monolayer Culture NPC Proliferation Assay (Incorporation of EdU—S Phase Marker)
After 24 h, it was ensured that cells had attached to the plate then the medium was carefully removed. 500 μL of compound media plus GF. was added. The cells were cultured for 3 days in appropriate media.
Control and compound media was made with #2 media and contains 29 uM Choline, Low (5 uM) and medium (70 uM) choline media was made with #3 media.
EDU incorporation was measured using Click-IT® EdU Alexa Fluor® 555 Imaging Kit (Life technologies, #c10338).
At the end of day 3 EdU was added to each well at 10 μM for 30 minutes prior to fixation.
For fixation and subsequent immunohistochemical analysis, the medium was removed, the cells were rinsed once with 1×PBS for 5 min, and fixed with 4% PFA in 1×PBS for 15 min at 4° C., then the cells were washed twice with 1×PBS for 5 min, left in 1×PBS, wrapped in foil and leave overnight at 4° C., or staining was proceeded with.
PBS was removed and enough AB staining solution (1% Goat serum, 1×PBS, and 0.1% triton X) added to cover the bottom, the block was kept at room temp for 1 hour. The cells were stained for EDU. The cells were Incubated for 30 min at room temp, in the dark. The cells were washed with 1×PBS and stained with Dapi 1:5000 ul for 15 min. […]

## Sphingomyelin
[1]
  association of nutrient with myelination (myelin water fraction) over time in the brain: an association with myelination (myelin water fraction) was observed over time in the brain
[2]
  number of neurospheres, Average (Mean): 94
[3]
  neuronal proliferation (DAPI): 280
